# Results published in patent US20240158446A1, “CYCLIC COMPOUND HAVING SELECTIVE INHIBITORY ACTION ON KRAS OVER HRAS AND NRAS” (CHUGAI SEIYAKU KABUSHIKI KAISHA, priority 2021, published 2024).
# pKd: −log10 of the molar value. Read-outs that look alike come from different tables or passages of the source. *1 amine or outer side, *2 acyl side, *3 side chain or, on linkers, in order; H or OH if unused. Where a SMILES comes first, the peptide text is derived from it. Bridges are numbered along the chain shown (N, C = ends). [ ]: non-standard residue; d: D form. The star is where a group is joined. hPhe(3-Cl-4-CF3) = N[C@@H](CCc1ccc(C(F)(F)F)c(Cl)c1)C(=O)O; X38 = C#CCN([C@@H](Cc1ccc(C(F)(F)F)cc1)C(=O)[*:2])[*:1]; NPrPhe(4-CF3) = CCCN[C@@H](Cc1ccc(C(F)(F)F)cc1)C(=O)O; X20 = Cc1ccc(C[C@@H](C(=O)[*:2])N(CC2CCCC2)[*:1])cc1; NMePhe(4-F) = CN[C@@H](Cc1ccc(F)cc1)C(=O)O; NMeGly(cPent) = CN[C@H](C(=O)O)C1CCCC1; Hyp = O=C(O)[C@@H]1C[C@@H](O)CN1; NMeD = CN[C@@H](CC(=O)O)C(=O)O; NMeL = CN[C@@H](CC(C)C)C(=O)O; Morpholide = C1CN(*)CCO1; NMeA = CN[C@@H](C)C(=O)O; Ac5c = NC1(C(=O)O)CCCC1; Aze = O=C(O)[C@@H]1CCN1; NPrGly = CCCNCC(=O)O; Sar = CNCC(=O)O
# What was measured:
# [1] = target: GDP-bound NRAS wild-type protein (Homo sapiens, UniProt P01111); experiment: Binding to NRAS by surface plasmon resonance (SPR), Single Cycle Kinetics; settings: for NRAS/KRAS (ratio of KD value for NRAS to KD value for KRAS) / NRAS/KRAS (ratio of KD value with respect to NRAS to KD value with respect to KRAS): SPR, GDP-bound NRAS wild-type protein vs GDP-bound KRAS wild-type protein
# [2] = target: GDP-bound HRAS wild-type protein (Homo sapiens, UniProt P01112); experiment: Binding to HRAS by surface plasmon resonance (SPR), Single Cycle Kinetics; settings: for HRAS/KRAS (ratio of KD value for HRAS to KD value for KRAS) / HRAS/KRAS (ratio of KD value with respect to HRAS to KD value with respect to KRAS): SPR, GDP-bound HRAS wild-type protein vs GDP-bound KRAS wild-type protein
# [3] = target: GDP-bound KRAS wild-type protein (Homo sapiens, UniProt P01116); experiment: Binding to KRAS by surface plasmon resonance (SPR), Single Cycle Kinetics; settings: GDP-bound KRAS wild-type protein, read-out: KRAS KD
# [4] = SPR Single Cycle Kinetics, 1:1 binding model
# Chain of GDP-bound KRAS wild-type protein (P01116 whole entry): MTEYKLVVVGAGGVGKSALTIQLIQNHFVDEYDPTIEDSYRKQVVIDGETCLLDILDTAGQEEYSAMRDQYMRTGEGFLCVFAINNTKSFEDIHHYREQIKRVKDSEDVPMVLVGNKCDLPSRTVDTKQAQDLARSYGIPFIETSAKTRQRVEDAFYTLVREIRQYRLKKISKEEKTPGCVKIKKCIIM
# Chain of GDP-bound HRAS wild-type protein (P01112 whole entry): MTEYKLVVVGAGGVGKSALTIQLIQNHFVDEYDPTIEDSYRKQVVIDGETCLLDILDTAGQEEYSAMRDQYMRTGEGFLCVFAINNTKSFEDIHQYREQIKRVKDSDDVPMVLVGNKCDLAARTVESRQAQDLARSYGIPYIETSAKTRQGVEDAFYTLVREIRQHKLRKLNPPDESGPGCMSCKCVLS
# Chain of GDP-bound NRAS wild-type protein (P01111 whole entry): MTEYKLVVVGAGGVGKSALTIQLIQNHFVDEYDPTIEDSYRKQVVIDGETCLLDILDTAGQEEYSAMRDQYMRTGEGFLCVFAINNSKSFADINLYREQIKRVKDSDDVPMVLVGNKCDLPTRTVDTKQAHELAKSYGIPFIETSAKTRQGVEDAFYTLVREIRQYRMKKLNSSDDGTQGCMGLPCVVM
Structure (SMILES),NRAS/KRAS (ratio of KD value for NRAS to KD value for KRAS) [1],HRAS/KRAS (ratio of KD value for HRAS to KD value for KRAS) [2],"pKd [3, 4]",further results
C#CCN1C(=O)[C@@H]2CCN2C(=O)[C@H](C)N(C)C(=O)[C@H]([C@@H](C)CC)NC(=O)[C@H](CC(C)C)N(C)C(=O)C[C@@H](C(=O)N2CCOCC2)N(C)C(=O)[C@H](C2CCCC2)N(C)C(=O)C2(CCCC2)NC(=O)[C@@H]2CCCN2C(=O)[C@H](CCc2ccc(C(F)(F)F)c(Cl)c2)NC(=O)CN(C)C(=O)[C@@H]1Cc1ccc(C(F)(F)F)cc1 [PP0116] ([NMeL]I[NMeA][Aze][X38][Sar][hPhe(3-Cl-4-CF3)]P[Ac5c][NMeGly(cPent)][NMeD]-Morpholide; lactam N-11),C (A compound having a KD ratio of 0.1 or more and less than 3 is denoted as C),C (A compound having a KD ratio of 0.1 or more and less than 3 is denoted as C),9.57,–
CCO[C@@H]1C[C@H]2C(=O)NC3(CCC3)C(=O)N(C)[C@@H](C3CCCC3)C(=O)N(C)[C@H](C(=O)N3CCOCC3)CC(=O)N(C)[C@@H](CC(C)C)C(=O)N[C@@H]([C@@H](C)CC)C(=O)N(C)CC(=O)N(C)[C@H]3CCCCN(C3=O)[C@@H](Cc3ccc(C(F)(F)F)cc3)C(=O)N(C)CC(=O)N[C@@H](CCc3cc(F)c(C(F)(F)F)c(F)c3)C(=O)N2C1 [PP0578],–,–,10.54,NRAS/KRAS (ratio of KD value with respect to NRAS to KD value with respect to KRAS) [1]: B (a compound having 3 or more and less than 10 is denoted as B); HRAS/KRAS (ratio of KD value with respect to HRAS to KD value with respect to KRAS) [2]: B (a compound having 3 or more and less than 10 is denoted as B)
CCCN1C(=O)CN(C)C(=O)[C@@H]2CCN2C(=O)[C@H]([C@@H](C)CC)NC(=O)[C@H](CC(C)C)N(C)C(=O)C[C@@H](C(=O)N(C)C)NC(=O)[C@H](C2CCCC2)N(C)C(=O)C2(CCCC2)NC(=O)[C@@H]2CCCN2C(=O)[C@H](CCc2ccc(C(F)(F)F)c(Cl)c2)NC(=O)CN(C)C(=O)[C@@H]1Cc1ccc(C(F)(F)F)cc1 [PP0373] ([NMeL]I[Aze][Sar][NPrPhe(4-CF3)][Sar][hPhe(3-Cl-4-CF3)]P[Ac5c][NMeGly(cPent)]D-NMe2; lactam N-11),B (a compound having 3 or more and less than 10 is denoted as B),B (a compound having 3 or more and less than 10 is denoted as B),8.92,–
CC[C@H](C)[C@@H]1NC(=O)[C@H](CC(C)C)N(C)C(=O)C[C@@H](C(=O)N2CCOCC2)N(C)C(=O)[C@H](C2CCCC2)N(C)C(=O)C2(CCCC2)NC(=O)[C@@H]2CCCN2C(=O)[C@H](CCc2ccc(C(F)(F)F)c(Cl)c2)NC(=O)CN(C)C(=O)[C@H](Cc2ccc(F)cc2)N(C)C(=O)CN(C)C(=O)CN(C)C1=O [PP0212] ([NMeL]I[Sar][Sar][NMePhe(4-F)][Sar][hPhe(3-Cl-4-CF3)]P[Ac5c][NMeGly(cPent)][NMeD]-Morpholide; lactam N-11),C (A compound having a KD ratio of 0.1 or more and less than 3 is denoted as C),C (A compound having a KD ratio of 0.1 or more and less than 3 is denoted as C),10.01,–
CC[C@H](C)[C@@H]1NC(=O)[C@H](CC(C)C)N(C)C(=O)C[C@@H](C(=O)N2CCOCC2)N(C)C(=O)[C@H](C2CCCC2)N(C)C(=O)C2(CCCC2)NC(=O)[C@@H]2CCCN2C(=O)[C@H](CCc2ccc(C(F)(F)F)c(Cl)c2)NC(=O)CN(C)C(=O)[C@H](Cc2ccc(C)cc2)N(CC2CCCC2)C(=O)CN(C)C(=O)CN(C)C1=O [PP0096] ([NMeL]I[Sar][Sar][X20][Sar][hPhe(3-Cl-4-CF3)]P[Ac5c][NMeGly(cPent)][NMeD]-Morpholide; lactam N-11),C (A compound having a KD ratio of 0.1 or more and less than 3 is denoted as C),C (A compound having a KD ratio of 0.1 or more and less than 3 is denoted as C),8.55,–
CCCN1C(=O)[C@@H]2CCN2C(=O)[C@H](C)N(C)C(=O)[C@H]([C@@H](C)CC)NC(=O)[C@H](CC(C)C)N(C)C(=O)C[C@@H](C(=O)N2CCOCC2)N(C)C(=O)[C@H](C2CCCC2)N(C)C(=O)C2(CCCC2)NC(=O)[C@@H]2C[C@@H](OCC)CN2C(=O)[C@H](CCc2ccc(C(F)(F)F)c(Cl)c2)NC(=O)CN(C)C(=O)[C@@H]1Cc1ccc(C(F)(F)F)cc1 [PP0228] ([NMeL]I[NMeA][Aze][NPrPhe(4-CF3)][Sar][hPhe(3-Cl-4-CF3)][Hyp](Et)[Ac5c][NMeGly(cPent)][NMeD]-Morpholide; lactam N-11),C (A compound having a KD ratio of 0.1 or more and less than 3 is denoted as C),B (a compound having 3 or more and less than 10 is denoted as B),10.43,–
CCCN1CC(=O)N(C)CC(=O)N(CCC)[C@@H](Cc2ccc(C(F)(F)F)cc2)C(=O)N(C)CC(=O)N[C@@H](CCc2ccc(C(F)(F)F)c(Cl)c2)C(=O)N2CCC[C@H]2C(=O)NC2(CCCC2)C(=O)N(C)[C@@H](C2CCCC2)C(=O)N(C)[C@H](C(=O)N2CCOCC2)CC(=O)N(C)[C@@H](CC(C)C)C(=O)N[C@@H]([C@@H](C)CC)C1=O [PP0253] ([NMeL]I[NPrGly][Sar][NPrPhe(4-CF3)][Sar][hPhe(3-Cl-4-CF3)]P[Ac5c][NMeGly(cPent)][NMeD]-Morpholide; lactam N-11),B (a compound having 3 or more and less than 10 is denoted as B),B (a compound having 3 or more and less than 10 is denoted as B),9.26,–
CC[C@H](C)[C@@H]1NC(=O)[C@H](COC)N(C)C(=O)C[C@@H](C(=O)N2CCOCC2)N(C)C(=O)[C@H](C2CCCC2)N(C)C(=O)C2(CCC2)NC(=O)[C@@H]2CC(F)(F)CN2C(=O)[C@H](CCc2cc(F)c(C(F)(F)F)c(F)c2)NC(=O)CN(C)C(=O)[C@H](Cc2ccc(C(F)(F)F)cc2)N2CCCCC[C@@H](C2=O)N(C)C(=O)CNC1=O [PP0861],B (a compound having 3 or more and less than 10 is denoted as B),B (a compound having 3 or more and less than 10 is denoted as B),–,"pKd ([3]; SPR, Single Cycle Kinetics): 9.18"
"CCO[C@@H]1C[C@H]2C(=O)NC3(CC(C)(C)C3)C(=O)N(C)[C@@H](C3CCCC3)C(=O)N(C)[C@H](C(=O)N3CCCC3)CC(=O)N(C)[C@H]3CCCCCCc4ccc(cc4)C[C@@H](C(=O)N(C)CC(=O)N[C@@H](CCc4ccc(C(F)(F)F)c(OC)c4)C(=O)N2C1)N1CC/C=C\C[C@@H](C1=O)N(C)C(=O)CN(C)C(=O)[C@H]([C@@H](C)CC)NC3=O [PP3034, (1S,7S,11R,13S,19S,22S,26S,29S,35S,37Z)-19-cyclopentyl-11-ethoxy-7-[2-[3-methoxy-4-(trifluoromethyl)phenyl]ethyl]-3,3′,3′,18,21,25,31,34-octamethyl-29-[(1S)-1-methylpropyl]-22-(pyrrolidine-1-carbonyl)spiro[3,6,9,15,18,21,25,28,31,34,41-undecazapentacyclo[24.15.11.2^43,46.1^35,41.0^9,13]pentapentaconta-37,43(54),44,46(53)-tetraene-16,1′-cyclobutane]-2,5,8,14,17,20,24,27,30,33,55-undecone]",A (a compound having 10 or more and less than 20 is denoted as A),B (a compound having 3 or more and less than 10 is denoted as B),–,"pKd ([3]; SPR, Single Cycle Kinetics): 9.96"
CCO[C@@H]1C[C@H]2C(=O)NC3(CC(C)(C)C3)C(=O)N(C)[C@@H](C3CCCC3)C(=O)N(C)[C@H](C(=O)N3CCCCC3)CC(=O)N(C)[C@H]3CCC/C=C/c4ccc(cc4)C[C@@H](C(=O)N(C)CC(=O)N[C@@H](CCc4cc(F)c(C(F)(F)F)c(F)c4)C(=O)N2C1)N1CC/C=C\C[C@@H](C1=O)N(C)C(=O)CN(C)C(=O)[C@H]([C@@H](C)CC)NC3=O [PP2573],–,–,10.00,"NRAS/KRAS (ratio of KD value with respect to GDP-bound NRAS wild-type protein to KD value with respect to KRAS) ([1]; SPR KD ratio NRAS/KRAS, class symbols): A (a compound having 10 or more and less than 20 is denoted as A); HRAS/KRAS (ratio of KD value with respect to GDP-bound HRAS wild-type protein to KD value with respect to KRAS) ([2]; SPR KD ratio HRAS/KRAS, class symbols): A (a compound having 10 or more and less than 20 is denoted as A)"
CCO[C@@H]1C[C@H]2C(=O)NC3(CCC3)C(=O)N(C)[C@@H](C(CC)CC)C(=O)N(C)[C@H](C(=O)N(C)C)CC(=O)N(C)[C@@H](CC(C)C)C(=O)N[C@@H]([C@@H](C)CC)C(=O)N(C)CC(=O)N(C)[C@H]3C/C=C\CCN(C3=O)[C@@H](Cc3ccc(F)cc3)C(=O)N(C)CC(=O)N[C@@H](CCc3cc(F)c(C(F)(F)F)c(F)c3)C(=O)N2C1 [PP1519],–,–,–,"NRAS/KRAS (ratio of KD value for NRAS to KD value for KRAS) ([1]; KD ratio class): A (a compound having 10 or more and less than 20 is denoted as A); HRAS/KRAS (ratio of KD value for HRAS to KD value for KRAS) ([2]; KD ratio class): A (a compound having 10 or more and less than 20 is denoted as A); pKd ([3]; SPR, Single Cycle Kinetics, 1:1 binding model): 9.39"
CC[C@H](C)[C@@H]1NC(=O)[C@H](CC(C)C)N(C)C(=O)C[C@@H](C(=O)N2CCOCC2)N(C)C(=O)[C@H](C2CCCC2)N(C)C(=O)C2(CCCC2)NC(=O)[C@@H]2CCCN2C(=O)[C@H](CCc2cc(F)c(C(F)(F)F)c(F)c2)NC(=O)CN(C)C(=O)[C@H](Cc2ccc(C(F)(F)F)cc2)N2CCCC[C@@H](C2=O)N(C)C(=O)[C@@H]2CCCCN2C1=O [PP0548],–,–,7.82,NRAS/KRAS (ratio of KD value with respect to NRAS to KD value with respect to KRAS) [1]: C (A compound having a KD ratio of 0.1 or more and less than 3 is denoted as C); HRAS/KRAS (ratio of KD value with respect to HRAS to KD value with respect to KRAS) [2]: B (a compound having 3 or more and less than 10 is denoted as B)
